PubChem BioAssay (NCI)
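At the GI50, growth is halved. TGI: concentration producing complete growth inhibition.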

Key:
Experiment in all cases: NCI anticancer screen, dose series, 384-well format
[1] = system: 786-0 renal
[2] = system: A498 renal
[3] = system: A549 NSCLC
[4] = system: ACHN renal
[5] = system: BT-549 breast
[6] = system: CAKI-1 renal
[7] = system: CCRF-CEM leukemia
[8] = system: COLO 205 colon
[9] = system: DU-145 prostate
[10] = system: EKVX NSCLC
[11] = system: HCC-2998 colon
[12] = system: HCT-116 colon
[13] = system: HCT-15 colon
[14] = system: HL-60(TB) leukemia
[15] = system: HOP-62 NSCLC
[16] = system: HOP-92 NSCLC
[17] = system: HS 578T breast
[18] = system: HT29 colon
[19] = system: IGROV1 ovarian
[20] = system: K-562 leukemia
[21] = system: KM12 colon
[22] = system: LOX IMVI melanoma
[23] = system: M14 melanoma
[24] = system: MALME-3M melanoma
[25] = system: MCF7 breast
[26] = system: MDA-MB-231 breast
[27] = system: MDA-MB-435 melanoma
[28] = system: MDA-MB-468 breast
[29] = system: MOLT-4 leukemia
[30] = system: NCI-H226 lung
[31] = system: NCI-H23 lung
[32] = system: NCI-H322M lung
[33] = system: NCI-H460 NSCLC
[34] = system: NCI-H522 lung
[35] = system: NCI/ADR-RES ovarian
[36] = system: OVCAR-3 ovarian
[37] = system: OVCAR-4 ovarian
[38] = system: OVCAR-5 ovarian
[39] = system: OVCAR-8 ovarian
[40] = system: PC-3 prostate
[41] = system: RPMI-8226 leukemia
[42] = system: RXF 393 renal
[43] = system: SF-268 CNS
[44] = system: SF-295 CNS
[45] = system: SF-539 CNS
[46] = system: SK-MEL-28 melanoma
[47] = system: SK-MEL-5 melanoma
[48] = system: SK-OV-3 ovarian
[49] = system: SN12C renal
[50] = system: SNB-19 CNS
[51] = system: SNB-75 CNS
[52] = system: SW-620 colon
[53] = system: T-47D breast
[54] = system: TK-10 renal
[55] = system: U251 glioblastoma
[56] = system: UACC-257 melanoma
[57] = system: UACC-62 melanoma
[58] = system: UO-31 renal

`COc1ccc(-c2nc(N3CCOCC3)c3sc(CN(C)c4ncc(C(=O)NO)cn4)cc3n2)cn1` was tested, and the GI50 [1] was < 10 nM, the TGI [1] was 28.4 nM and the GI50 [2] was < 10 nM. For the same compound, the TGI [2] was 12.3 nM, the GI50 [3] was < 10 nM and the TGI [3] was < 10 nM. The GI50 [4] was < 10 nM, the TGI [4] was 13.3 nM and the GI50 [5] was < 10 nM. For the same compound, the TGI [5] was 13.6 nM, the GI50 [6] was < 10 nM and the TGI [6] was < 10 nM. For the same compound, the GI50 [7] was < 10 nM, the TGI [7] was < 10 nM and the GI50 [8] was < 10 nM. For the same compound, the TGI [8] was 11 nM, the GI50 [9] was < 10 nM and the TGI [9] was < 10 nM. For the same compound, the GI50 [10] was 14 nM, the TGI [10] was 76.5 nM and the GI50 [11] was < 10 nM. The TGI [11] was < 10 nM, the GI50 [12] was < 10 nM and the TGI [12] was < 10 nM. The GI50 [13] was < 10 nM, the TGI [13] was 23.2 nM and the GI50 [14] was < 10 nM. For the same compound, the TGI [14] was < 10 nM, the GI50 [15] was < 10 nM and the TGI [15] was 17.4 nM. The GI50 [16] was < 10 nM, the TGI [16] was 23.6 nM and the GI50 [17] was < 10 nM. For the same compound, the TGI [17] was 16 nM, the GI50 [18] was < 10 nM and the TGI [18] was 12.5 nM. For the same compound, the GI50 [19] was < 10 nM, the TGI [19] was 10.6 nM and the GI50 [20] was < 10 nM. The TGI [20] was < 10 nM, the GI50 [21] was < 10 nM and the TGI [21] was 15.1 nM. For the same compound, the GI50 [22] was < 10 nM, the TGI [22] was < 10 nM and the GI50 [23] was < 10 nM. For the same compound, the TGI [23] was < 10 nM, the GI50 [24] was < 10 nM and the TGI [24] was < 10 nM. For the same compound, the GI50 [25] was < 10 nM, the TGI [25] was < 10 nM and the GI50 [26] was < 10 nM. The TGI [26] was < 10 nM, the GI50 [27] was < 10 nM and the TGI [27] was 10.1 nM. For the same compound, the GI50 [28] was < 10 nM, the TGI [28] was < 10 nM and the GI50 [29] was < 10 nM. For the same compound, the TGI [29] was < 10 nM, the GI50 [30] was < 10 nM and the TGI [30] was 33 nM. For the same compound, the GI50 [31] was < 10 nM, the TGI [31] was < 10 nM and the GI50 [32] was < 10 nM. The TGI [32] was 19.1 nM, the GI50 [33] was < 10 nM and the TGI [33] was 11.7 nM. The GI50 [34] was < 10 nM, the TGI [34] was < 10 nM and the GI50 [35] was < 10 nM. The TGI [35] was 12.5 nM, the GI50 [36] was < 10 nM and the TGI [36] was < 10 nM. The GI50 [37] was 13.9 nM, the TGI [37] was 40.7 nM and the GI50 [38] was < 10 nM. For the same compound, the TGI [38] was 16.9 nM, the GI50 [39] was < 10 nM and the TGI [39] was 10.1 nM. For the same compound, the GI50 [40] was < 10 nM, the TGI [40] was 10.7 nM and the GI50 [41] was < 10 nM. For the same compound, the TGI [41] was < 10 nM, the GI50 [42] was < 10 nM and the TGI [42] was < 10 nM. The GI50 [43] was < 10 nM, the TGI [43] was < 10 nM and the GI50 [44] was < 10 nM. For the same compound, the TGI [44] was 18.9 nM, the GI50 [45] was < 10 nM and the TGI [45] was 13.6 nM. The GI50 [46] was < 10 nM, the TGI [46] was 17.9 nM and the GI50 [47] was < 10 nM. The TGI [47] was < 10 nM, the GI50 [48] was < 10 nM and the TGI [48] was < 10 nM. For the same compound, the GI50 [49] was < 10 nM, the TGI [49] was 16.3 nM and the GI50 [50] was < 10 nM. For the same compound, the TGI [50] was 18.7 nM, the GI50 [51] was < 10 nM and the TGI [51] was 22.6 nM. For the same compound, the GI50 [52] was < 10 nM, the TGI [52] was < 10 nM and the GI50 [53] was < 10 nM. For the same compound, the TGI [53] was < 10 nM, the GI50 [54] was 11.6 nM and the TGI [54] was 28.7 nM. For the same compound, the GI50 [55] was < 10 nM, the TGI [55] was < 10 nM and the GI50 [56] was < 10 nM. The TGI [56] was < 10 nM, the GI50 [57] was < 10 nM and the TGI [57] was < 10 nM. The GI50 [58] was < 10 nM and the TGI [58] was 26.9 nM.
